Laboratory results taken from US10669283B2, “Compound and pharmacologically acceptable salt thereof” (MEIJI SEIKA PHARMA CO., LTD., priority 2016, dated 2020).

Each molecule was assayed on PDE4 (assay: PDE4 inhibition, scintillation proximity assay (SPA)). Conditions: scintillation proximity assay (SPA); evaluated as classes A, B, C; read-out: PDE4 Inhibitory Activity (concentration for the inhibition rate of 50%).
Type: biochemical
How it was run: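 Scintillation proximity read-out: [2,8-3H]-cAMP hydrolysis by PDE4 ran 120 min at room temperature in Tris-HCl pH 7.4 buffer with 8.3 mM MgCl2, 1.7 mM EGTA and 3 mg/mL BSA. Bead-bound product (YSi-SPA with ZnSO4, 15 min) counted; blank lacks enzyme, control has DMSO only.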
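For PDE4 Inhibitory Activity (concentration for the inhibition rate of 50%) in this document: A below 100 nM B 100 to below 1000 nM C 1000 nM or more.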

Structure (SMILES) | IC50 [nM]
FC(F)(F)c1cc(-c2nccs2)c2oc(N3CC4CCCC(C3)N4)nc2c1 [Example 53, 2-(3,9-Diazabicyclo[3.3.1]nonan-3-yl)-7-(thiazol-2-yl)-5-(trifluoromethyl)benzo[d]oxazole] | < 100
Cc1ccc(-c2nccs2)c2oc(N3CC4CCCC(C3)N4)nc12 [Example 27, 2-(3,9-Diazabicyclo[3.3.1]nonan-3-yl)-4-methyl-7-(thiazol-2-yl)benzo[d]oxazole] | < 100
CC(C)(O)C(F)(F)OC(c1ccc(-c2nccs2)c2oc(N3CC4CC(C3)N4)nc12)C(F)(F)F (stereo not drawn) [Example 257, 1-(1-(2-(3,6-Diazabicyclo[3.1.1]heptan-3-yl)-7-(thiazol-2-yl)benzo[d]oxazol-4-yl)-2,2,2-trifluoroethoxy)-1,1-difluoro-2-methylpropan-2-ol] | < 100
O=C(NCc1ccccc1)c1cc(-c2nccs2)c2oc(N3CC4CCC(C3)N4)nc2c1 [Example 98, N-benzyl-2-(3,8-diazabicyclo[3.2.1]octan-3-yl)-7-(thiazol-2-yl)benzo[d]oxazole-5-carboxamide] | < 100
N#CCOC(c1ccc(-c2nccs2)c2oc(N3CC4CC(C3)N4)nc12)C(F)(F)F (stereo not drawn) [Example 226, 2-(1-(2-(3,6-Diazabicyclo[3.1.1]heptan-3-yl)-7-(thiazol-2-yl)benzo[d]oxazol-4-yl)-2,2,2-trifluoroethoxy)acetonitrile] | < 100
OCc1ccc(-c2nccs2)c2oc(N3CC4CCCC(C3)N4)nc12 [Example 134, (2-(3,9-Diazabicyclo[3.3.1]nonan-3-yl)-7-(thiazol-2-yl)benzo[d]oxazol-4-yl)methanol] | < 100
OCc1ccc(-c2nccs2)c2oc(N3CC4CCC(C3)N4)nc12 [Example 132, (2-(3,8-Diazabicyclo[3.2.1]octan-3-yl)-7-(thiazol-2-yl)benzo[d]oxazol-4-yl)methanol] | < 100
COC(C)c1cc(-c2nccs2)c2oc(N3CC4CCC(C3)N4)nc2c1OC(F)(F)F (stereo not drawn) [Example 210, 2-(3,8-Diazabicyclo[3.2.1]octan-3-yl)-5-(1-methoxyethyl)-7-(thiazol-2-yl)-4-(trifluoromethoxy)benzo[d]oxazole] | < 100
COc1cc(-c2nccs2)c2oc(N3CC4CC(C3)N4)nc2c1 [Example 61, 2-(3,6-Diazabicyclo[3.1.1]heptan-3-yl)-5-methoxy-7-(thiazol-2-yl)benzo[d]oxazole] | < 100
FC(F)Oc1ccc(-c2nccs2)c2oc(N3CC4CC(C3)N4)nc12 [Example 278, 2-(3,6-Diazabicyclo[3.1.1]heptan-3-yl)-4-(difluoromethoxy)-7-(thiazol-2-yl)benzo[d]oxazole] | < 100
OC(O)(c1cc(-c2nccs2)c2oc(N3CC4CC(C3)N4)nc2c1)C(F)(F)F [Example 158, 1-(2-(3,6-Diazabicyclo[3.1.1]heptan-3-yl)-7-(thiazol-2-yl)benzo[d]oxazol-5-yl)-2,2,2-trifluoroethane-1,1-diol] | 100 to 1000
COC1(COC(c2ccc(-c3nccs3)c3oc(N4CC5CC(C4)N5)nc23)C(F)(F)F)CC1 (stereo not drawn) [Example 282, 2-(3,6-Diazabicyclo[3.1.1]heptan-3-yl)-7-(thiazol-2-yl)-4-(2,2,2-trifluoro-1-((1-methoxycyclopropyl)methoxy)ethyl)benzo[d]oxazole] | < 100
CCOC(=O)c1ccc(-c2nccs2)c2oc(N3CC4CCCC(C3)N4)nc12 [Example 114, Ethyl 2-(3,9-diazabicyclo[3.3.1]nonan-3-yl)-7-(thiazol-2-yl) benzo[d]oxazole-4-carboxylate] | < 100
CSc1cc(-c2nccs2)c2oc(N3CC4CCCC(C3)N4)nc2c1 [Example 41, 2-(3,9-Diazabicyclo[3.3.1]nonan-3-yl)-5-(methylthio)-7-(thiazol-2-yl)benzo[d]oxazole] | < 100
CC(O)(c1cc(-c2nccs2)c2oc(N3CC4CCC(C3)N4)nc2c1)C(F)(F)F (stereo not drawn) [Example 159, 2-(2-(3,8-Diazabicyclo[3.2.1]octan-3-yl)-7-(thiazol-2-yl)benzo[d]oxazol-5-yl)-1,1,1-trifluoropropan-2-ol] | < 100
OC(c1cc(-c2nccs2)c2oc(N3CC4CCC(C3)N4)nc2c1C(F)(F)F)C(F)F (stereo not drawn) [Example 183, 1-(2-(3,8-Diazabicyclo[3.2.1]octan-3-yl)-7-(thiazol-2-yl)-4-(trifluoromethyl)benzo[d]oxazol-5-yl)-2,2-difluoroethan-1-ol] | < 100
CC(=O)Nc1ccc(-c2nccs2)c2oc(N3CC4CC(C3)N4)nc12 [Example 35, N-(2-(3,6-diazabicyclo[3.1.1]heptan-3-yl)-7-(thiazol-2-yl)benzo[d]oxazol-4-yl)acetamide] | 100 to 1000
CC(O)(c1cc(-c2nccs2)c2oc(N3CC4CC(C3)N4)nc2c1OC(F)(F)F)C(F)(F)F (stereo not drawn) [Example 216, 2-(2-(3,6-Diazabicyclo[3.1.1]heptan-3-yl)-7-(thiazol-2-yl)-4-(trifluoromethoxy)benzo[d]oxazol-5-yl)-1,1,1-trifluoropropan-2-ol] | < 100
COC(c1cc(-c2nccs2)c2oc(N3CC4CCC(C3)N4)nc2c1)C(F)(F)F (stereo not drawn) [Example 143, 2-(3,8-Diazabicyclo[3.2.1]octan-3-yl)-7-(thiazol-2-yl)-5-(2,2,2-trifluoro-1-methoxyethyl)benzo[d]oxazole] | < 100
OCCOC(c1ccc(-c2nccs2)c2oc(N3CC4CCC(C3)N4)nc12)C(F)(F)F (stereo not drawn) [Example 225, 2-(1-(2-(3,8-Diazabicyclo[3.2.1]octan-3-yl)-7-(thiazol-2-yl)benzo[d]oxazol-4-yl)-2,2,2-trifluoroethoxy)ethan-1-ol] | < 100
C[S+]([O-])c1cc(-c2nccs2)c2oc(N3CC4CCCC(C3)N4)nc2c1 (stereo not drawn) [Example 44, 2-(3,9-Diazabicyclo[3.3.1]nonan-3-yl)-5-(methylsulfinyl)-7-(thiazol-2-yl)benzo[d]oxazole] | < 100
CCOC(=O)c1ccc(-c2nccs2)c2oc(N3CC4CC(C3)N4)nc12 [Example 113, Ethyl 2-(3,6-diazabicyclo[3.1.1]heptan-3-yl)-7-(thiazol-2-yl)benzo[d]oxazole-4-carboxylate] | < 100
CCOC(=O)c1cc(-c2nccs2)c2oc(N3CC4CCCC(C3)N4)nc2c1 [Example 89, Ethyl 2-(3,9-diazabicyclo[3.3.1]nonan-3-yl)-7-(thiazol-2-yl) benzo[d]oxazole-5-carboxylate] | < 100
CC(C)(O)c1cc(-c2nccs2)c2oc(N3CC4CCC(C3)N4)nc2c1OC(F)(F)F [Example 195, 2-(2-(3,8-Diazabicyclo[3.2.1]octan-3-yl)-7-(thiazol-2-yl)-4-(trifluoromethoxy)benzo[d]oxazol-5-yl)propan-2-ol] | < 100

Same assay, conditions: scintillation proximity assay; class symbols; read-out: PDE4 Inhibitory Activity

Structure (SMILES) | IC50 [nM]
CC(C)(O)c1cc(-c2nccs2)c2oc(N3CC4CCC(C3)N4O)nc2c1OC(F)(F)F [Example 368, 3-(5-(2-hydroxy-propan-2-yl)-7-(thiazol-2-yl)-4-(trifluoromethoxy)benzo[d]oxazol-2-yl)-3,8-diazabicyclo [3.2.1]octan-8-ol] | 100 to 1000
O=S1(=O)CCN(c2ccc(-c3nccs3)c3oc(N4CC5CC(C4)N5)nc23)CC1 [Example 398, 4-(2-(3,6-diazabicyclo[3.1.1]heptan-3-yl)-7-(thiazol-2-yl)benzo[d]oxazol-4-yl)thiomorpholine 1,1-dioxide] | < 100
c1csc(-c2ccc(C3CCC3)c3nc(N4CC5CC(C4)N5)oc23)n1 [Example 414, 2-(3,6-diazabicyclo[3.1.1]heptan-3-yl)-4-cyclobutyl-7-(thiazol-2-yl)benzo[d]oxazole] | < 100
